# According to ChEMBL document CHEMBL1134135, “Nitrobenzene compounds inhibit expression of VCAM-1” (Bioorg Med Chem Lett, 2001):
# Molecular target: T1, Vascular cell adhesion protein 1 (Homo sapiens, UniProt P19320)
# T1 sequence (P19320 whole entry): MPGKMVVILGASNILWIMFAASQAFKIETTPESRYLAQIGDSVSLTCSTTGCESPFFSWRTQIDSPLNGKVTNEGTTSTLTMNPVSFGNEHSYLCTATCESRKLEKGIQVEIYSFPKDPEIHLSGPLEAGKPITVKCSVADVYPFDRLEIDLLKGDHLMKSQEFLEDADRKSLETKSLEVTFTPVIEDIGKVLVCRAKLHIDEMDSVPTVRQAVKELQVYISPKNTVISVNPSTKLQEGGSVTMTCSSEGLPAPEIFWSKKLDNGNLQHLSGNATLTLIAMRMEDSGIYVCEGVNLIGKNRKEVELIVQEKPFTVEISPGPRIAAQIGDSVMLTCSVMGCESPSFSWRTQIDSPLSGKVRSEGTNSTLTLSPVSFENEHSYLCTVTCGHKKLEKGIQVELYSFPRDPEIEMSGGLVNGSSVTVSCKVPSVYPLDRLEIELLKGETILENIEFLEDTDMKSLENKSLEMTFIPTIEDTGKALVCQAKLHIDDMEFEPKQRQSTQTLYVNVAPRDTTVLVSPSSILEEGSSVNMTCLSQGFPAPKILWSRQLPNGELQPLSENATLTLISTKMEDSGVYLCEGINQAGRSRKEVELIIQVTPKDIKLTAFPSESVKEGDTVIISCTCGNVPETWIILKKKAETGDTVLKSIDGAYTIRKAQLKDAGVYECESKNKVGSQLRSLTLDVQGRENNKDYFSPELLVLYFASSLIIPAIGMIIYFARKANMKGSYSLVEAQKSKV
# Experiment: Ability to inhibit expression of Vascular cell adhesion molecule 1; No effect; call rule not given here
row,SMILES,IC50
1,O=C(O)C1CCN(S(=O)(=O)c2ccc(Cl)c([N+](=O)[O-])c2)CC1,Not Active
2,CCN(CC)S(=O)(=O)c1cccc([N+](=O)[O-])c1,Not Active
3,CCN(CC)S(=O)(=O)c1ccc(Cl)cc1,Not Active
4,N#Cc1cc(Cl)cc(Cl)c1,Not Active
5,O=[N+]([O-])c1ccccc1Cl,Not Active
6,CCN(CC)c1ccc(S(=O)(=O)N(CC)CC)cc1[N+](=O)[O-],Not Active
